From patent US5668159A, “1,3,4-thiadiazoles and 1,3,4-oxadiazoles as IIb/IIIa antagonists” (The DuPont Merck Pharmaceutical Company, priority 1996, dated 1997)
Where a name gives a salt, the structure may show the parent alone.

Each compound was assayed on platelet aggregation (platelet rich plasma (PRP)) (assay: Platelet Aggregation Assay (inhibition of agonist-induced platelet aggregation in platelet rich plasma)). Conditions: with esterase, ester prodrugs preincubated with 100 IU/mL porcine liver esterase 2 hours at 37° C., human PRP, 100 μM ADP, read-out: Platelet Aggregation Assay IC50 (with esterase).
Format: cell-based
Method: Platelet Aggregation Assay: Venous blood was obtained from the arm of a healthy human donor who was drug-free and aspirin-free for at least two weeks prior to blood collection. Blood was collected into 10 mL citrated Vacutainer tubes. The blood was centrifuged for 15 minutes at 150× g at room temperature, and platelet-rich plasma (PRP) was removed. The remaining blood was centrifuged for 15 minutes at 1500× g at room temperature, and platelet-poor plasma (PPP) was removed. Samples were assayed on a aggregometer (PAP-4 Platelet Aggregation Profiler), using PPP as the blank (100% transmittance). 200 μL of PRP was added to each micro test tube, and transmittance was set to 0%. 20 μL of various agonists (ADP, collagen, arachidonate, epinephrine, thrombin) were added to each tube, and the aggregation profiles were plotted (% transmittance versus time). The results are expressed as % inhibition of agonist-inducedplatelet aggregation. For the IC50 evaluation, the test compounds were added at various concentrations prior to the activation of the platelets.
Ester prodrugs were preincubated (10^-3 M F.C.) with 100 IU/mL Porcine liver esterase (Sigma Chemical Co., St. Louis, Mo., #E-3128) for 2 hours at 37° C. Aliquots are then diluted in 0.1M Tris, p H 7.4, to the desired concentrations. Aliquots of 20 μl of the esterase pretreated prodrugs are added to 200 μl of human platelet rich plasma. Samples were placed in platelet profiler (aggregometer) for 8 minutes at 37° C., followed by the addition of 100 μM Adenosine Diphosphate, (Sigma Chemical Co., St. Louis, Mo., #A-6521), to induce platelet aggregation. Platelet aggregation was allowed to proceed for 5 minutes. Percent inhibition is calculated using percent aggregation in the presence of the test compound divided by percent aggregation of control, times 100. This value is subtracted from 100, yielding percent inhibition. Calculation of IC50 is performed on a Texas Instruments TI59 with an IC50 program.
Table A below sets forth the antiplatelet activity of representative compounds of the present invention. The indicated compounds were tested for their ability to inhibit platelet aggregation (using platelet rich plasma (PRP)). The IC50 value (the concentration of antagonist which inhibits platelet aggregation by 50% relative to a control lacking the antagonist) is shown. In Table A the IC50 values are expressed as: +++=IC50 of <10 μM; ++=IC50 of […]; +=IC50 of 50-100 μM (μM=micromolar).

**Q.** For `CCCCOC(=O)N[C@@H](CNC(=O)Cc1nnc(-c2ccc(C(=N)N)cc2)s1)C(=O)OC` [Example 1, Methyl N^3-[2-{2-(4-amidinophenyl)-1,3,4-thiadiazol-5-yl}-acetyl]-N^2-(n-butyloxycarbonyl)-2,3-(S)-diaminopropionate TFA salt], which IC50 is on record?
**A.** < 10 µM

**Q.** `COC(=O)[C@H](CNC(=O)Cc1nnc(-c2ccc(C(=N)N)cc2)s1)NS(=O)(=O)c1cccc(C)c1` [Example 25, Methyl N^3-[2-{2-(4-amidinophenyl)-1,3,4-thiadiazol-5-yl}-acetyl]-N^2-(3-methylphenylsulfonyl)-2,3-(S)-diaminopropionate TFA salt] was tested. Which IC50 did it give?
**A.** < 10 µM

**Q.** With `CNC(=N)c1ccc(-c2nnc(CC(=O)NC[C@H](NS(=O)(=O)c3cccc(C)c3)C(=O)OC)s2)cc1` [Example 44, Methyl N^3-[2-{2-(4-N-methylamidinophenyl)-1,3,4-thiadiazol-5-yl}-acetyl]-N^2-(3-methylphenylsulfonyl)-2,3-(S)-diaminopropionate TFA salt] as the compound, how does the IC50 read?
**A.** < 10 µM

**Q.** `CCCCNC(=N)c1ccc(-c2nnc(CC(=O)NC[C@H](NS(=O)(=O)c3cccc(C)c3)C(=O)OC)s2)cc1` [Example 64, Methyl N^3-[2-{2-(4-N-n-butylamidinophenyl)-1,3,4-thiadiazol-5-yl}-acetyl]-N^2-(3-methylphenylsulfonyl)-2,3-(S)-diaminopropionate TFA salt] was tested. Which IC50 did it give?
**A.** < 10 µM

**Q.** With `COC(=O)[C@H](CNC(=O)Cc1nnc(-c2ccc(C(=N)N)cc2)s1)NS(=O)(=O)c1ccccc1C` [Example 88, Methyl N^3-[2-{2-(4-amidinophenyl)-1,3,4-thiadiazol-5-yl}-acetyl]-N -(2-methylphenylsulfonyl)-2,3-(S)-diaminopropionate TFA salt] as the compound, how does the IC50 read?
**A.** < 10 µM

**Q.** `COC(=O)[C@H](CNC(=O)Cc1nnc(-c2ccc(C(=N)N)cc2)s1)NS(=O)(=O)c1c(C)noc1C` [Example 96, Methyl N^3-[2-{2-(4-amidinophenyl)-1,3,4-thiadiazol-5-yl}-acetyl]-N^2-(3,5-dimethylisoxazol-4-ylsulfonyl)-2,3-(S)-diaminopropionate TFA salt] was tested. Which IC50 did it give?
**A.** < 10 µM

**Q.** Which IC50 does the source give for `COC(=O)[C@H](CNC(=O)CCCc1nnc(C2CCNCC2)s1)NS(=O)(=O)c1cccc(C)c1` [Example 133, Methyl N^3-[4-{2-(4-piperidinyl)-1,3,4-thiadiazol-5-yl}-butyryl]-N^2-(3-methylphenylsulfonyl)-2,3-(S)-diaminopropionate TFA salt] here?
**A.** < 10 µM

**Q.** With `COC(=O)[C@H](CNC(=O)Cc1nnc(-c2ccc(NC(=N)N)cc2)s1)NS(=O)(=O)c1cccc(C)c1` [Example 145, Methyl N^3-[2-{2-(4-guanidinophenyl)-1,3,4-thiadiazol-5-yl}-acetyl]-N^2-(3-methylphenylsulfonyl)-2,3-(S)-diaminopropionate TFA salt] as the compound, how does the IC50 read?
**A.** < 10 µM

**Q.** How did the IC50 turn out when `COC(=O)[C@H](CNC(=O)Cc1nnc(-c2ccc(C(N)=O)cc2)s1)NS(=O)(=O)c1cccc(C)c1` [Example 170, Methyl N^3-[2-{2-(4-amidophenyl)-1,3,4-thiadiazol-5-yl}-acetyl]-N^2-(3-methylphenylsulfonyl)-2,3-(S)-diaminopropionate] was run?
**A.** 50 to 100 µM

**Q.** Which IC50 does the source give for `CCCCOC(=O)N[C@@H](CNC(=O)CSc1nnc(-c2ccc(C(=N)N)cc2)s1)C(=O)OC` [Example 192, Methyl N^3-[2-{2-(4-amidinophenyl)-1,3,4-thiadiazol-5-ylthio}acetyl]-N^2-(n-butoxycarbonyl)-2,3-(S)-diaminopropionate HCl salt] here?
**A.** < 10 µM

**Q.** Which IC50 does the source give for `CCCCOC(=O)N[C@@H](CNC(=O)CSc1nnc(-c2ccc(NC(=N)N)cc2)o1)C(=O)OC` [Example 242, Methyl N^3-[2-{2-(4-guanidinophenyl)-1,3,4-oxadiazol-5-ylthio}acetyl]-N^2-(n-butoxycarbonyl)-2,3-(S)-diaminopropionate TFA salt] here?
**A.** 10 to 50 µM

**Q.** With `CCCCOC(=O)N[C@@H](CNC(=O)CSc1nnc(-c2ccc(C(=N)N)cc2)o1)C(=O)OC` [Example 258, Methyl N^3-[2-{2-(4-amidinophenyl)-1,3,4-oxadiazol-5-ylthio}-acetyl]-N^2-(n-butyloxycarbonyl)-2,3-(S)-diamino propionate HCl salt] as the compound, how does the IC50 read?
**A.** < 10 µM

**Q.** How did the IC50 turn out when `CCCCOC(=O)N[C@@H](CNC(=O)Cc1nnc(-c2ccc(C(=N)N)cc2)o1)C(=O)OC` [Example 318, Methyl N^3-[2-{2-(4-amidinophenyl)-1,3,4-oxadiazol-5-yl}-acetyl]-N-^2-(n-butyloxycarbonyl)-2,3-(S)-diaminopropionate TFA salt] was run?
**A.** 50 to 100 µM

**Q.** With `CCCCOC(=O)N[C@@H](CNC(=O)Cc1nnc(-c2ccc(NC(=N)N)cc2)o1)C(=O)OC` [Example 335, Methyl N^3-[2-{2-(4-guanidinophenyl)-1,3,4-oxadiazol-5-yl}-acetyl]-N2-(n-butyloxycarbonyl)-2,3-(S)-diaminopropionate TFA salt] as the compound, how does the IC50 read?
**A.** < 10 µM

**Q.** `COC(=O)[C@H](Cc1ccccc1)NC(=O)CSc1nnc(-c2ccc(NC(=N)N)cc2)o1` [Example 392, Methyl N-[2-{2-(4-guanidinophenyl)-1,3,4-oxadiazol-5-ylthio}-acetyl]-(S)-phenylalanine TFA salt] was tested. Which IC50 did it give?
**A.** 10 to 50 µM

Same assay, conditions: without esterase, human PRP, read-out: Platelet Aggregation Assay IC50 (without esterase)

**Q.** How did the IC50 turn out when `CCCCOC(=O)N[C@@H](CNC(=O)Cc1nnc(-c2ccc(C(=N)N)cc2)s1)C(=O)O` [Example 2, N^3-[2-{2-(4-amidinophenyl)-1,3,4-thiadiazol-5-yl}-acetyl]-N^2-(n-butyloxycarbonyl)-2,3-(S)-diaminopropionic acid HCl salt] was run?
**A.** < 10 µM

**Q.** Which IC50 does the source give for `Cc1cccc(S(=O)(=O)N[C@@H](CNC(=O)Cc2nnc(-c3ccc(C(=N)N)cc3)s2)C(=O)O)c1` [Example 26, N^3-[2-{2-(4-amidinophenyl)-1,3,4-thiadiazol-5-yl}-acetyl]-N^2-(3-methylphenylsulfonyl)-2,3-(S)-diaminopropionic acid HCl salt] here?
**A.** < 10 µM

**Q.** For `CNC(=N)c1ccc(-c2nnc(CC(=O)NC[C@H](NS(=O)(=O)c3cccc(C)c3)C(=O)O)s2)cc1` [Example 63, N^3-[2-{2-(4-N-methylamidinophenyl)-1,3,4-thiadiazol-5-yl}-acetyl]-N^2-(3-methylphenylsulfonyl)-2,3-(S)-diaminopropionic acid HCl salt], which IC50 is on record?
**A.** < 10 µM

**Q.** `CCCCNC(=N)c1ccc(-c2nnc(CC(=O)NC[C@H](NS(=O)(=O)c3cccc(C)c3)C(=O)O)s2)cc1` [Example 65, N^3-[2-{2-(4-N-n-butylamidinophenyl)-1,3,4-thiadiazol-5-yl}-acetyl]-N^2-(3-methylphenylsulfonyl)-2,3-(S)-diaminopropionic acid HCl salt] was tested. Which IC50 did it give?
**A.** < 10 µM

**Q.** With `Cc1ccccc1S(=O)(=O)N[C@@H](CNC(=O)Cc1nnc(-c2ccc(C(=N)N)cc2)s1)C(=O)O` [Example 89, N^3-[2-{2-(4-amidinophenyl)-1,3,4-thiadiazol-5-yl}-acetyl]-N^2-(2-methylphenylsulfonyl)-2,3-(S)-diaminopropionate acid HCl salt] as the compound, how does the IC50 read?
**A.** < 10 µM

**Q.** Which IC50 does the source give for `Cc1noc(C)c1S(=O)(=O)N[C@@H](CNC(=O)Cc1nnc(-c2ccc(C(=N)N)cc2)s1)C(=O)O` [Example 97, N^3-[2-{2-(4-amidinophenyl)-1,3,4-thiadiazol-5-yl}-acetyl]-N^2-(3,5-dimethylisoxazol-4-ylsulfonyl)-2,3-(S)-diaminopropionic acid HCl salt] here?
**A.** < 10 µM

**Q.** Which IC50 does the source give for `Cc1cccc(S(=O)(=O)N[C@@H](CNC(=O)CCCc2nnc(C3CCNCC3)s2)C(=O)O)c1` [Example 134, N^3-[4-{2-(4-piperidinyl)-1,3,4-thiadiazol-5-yl}-butyryl]-N^2-(3-methylphenylsulfonyl)-2,3-(S)-diaminopropionic acid TFA salt] here?
**A.** < 10 µM

**Q.** `Cc1cccc(S(=O)(=O)N[C@@H](CNC(=O)Cc2nnc(-c3ccc(NC(=N)N)cc3)s2)C(=O)O)c1` [Example 146, N^3-[2-{2-(4-guanidinophenyl)-1,3,4-thiadiazol-5-yl}-acetyl]-N^2-(3-methylphenylsulfonyl)-2,3-(S)-diaminopropionic acid TFA salt] was tested. Which IC50 did it give?
**A.** < 10 µM

**Q.** Which IC50 does the source give for `Cc1cccc(S(=O)(=O)N[C@@H](CNC(=O)Cc2nnc(-c3ccc(C(N)=O)cc3)s2)C(=O)O)c1` [Example 171, N^3-[2-{2-(4-Amidophenyl)-1,3,4-thiadiazol-5-yl}-acetyl]-N^2-(3-methylphenylsulfonyl)-2,3-(S)-diaminopropionic acid] here?
**A.** < 10 µM

**Q.** How did the IC50 turn out when `CCCCOC(=O)N[C@@H](CNC(=O)CSc1nnc(-c2ccc(C(=N)N)cc2)s1)C(=O)O` [Example 193, N^3-[2-{2-(4-Amidinophenyl)-1,3,4-thiadiazol-5-ylthio}acetyl]-N^2-(n-butoxycarbonyl)-2,3-(S)-diaminopropionic acid HCl salt] was run?
**A.** < 10 µM
